The values that follow come from ChEMBL document CHEMBL5465560, “Selectivity Literature for EUbOPEN Chemogenomic Library” (2024).

Assay [1] addresses Serine/threonine-protein kinase B-raf (Homo sapiens) (UniProt P15056). Kind of assay: (§1) Selectivity interaction (ProQinase) EUB0000171b BRAF.
Assay [2] has as its system Serine/threonine-protein kinase B-raf (Homo sapiens), P15056 [V600E]. The assay is described as §1.
The target in another assay is Insulin receptor (Homo sapiens, UniProt P06213). Kind of assay: Selectivity interaction (Ambit KINOMEscan and KiNATiv profiling in Jurkat cells) EUB0000090b INSR. The settings on record: at 1 µM. The format is cell-based.
Chain of Insulin receptor (P06213 28-758 limits assumed): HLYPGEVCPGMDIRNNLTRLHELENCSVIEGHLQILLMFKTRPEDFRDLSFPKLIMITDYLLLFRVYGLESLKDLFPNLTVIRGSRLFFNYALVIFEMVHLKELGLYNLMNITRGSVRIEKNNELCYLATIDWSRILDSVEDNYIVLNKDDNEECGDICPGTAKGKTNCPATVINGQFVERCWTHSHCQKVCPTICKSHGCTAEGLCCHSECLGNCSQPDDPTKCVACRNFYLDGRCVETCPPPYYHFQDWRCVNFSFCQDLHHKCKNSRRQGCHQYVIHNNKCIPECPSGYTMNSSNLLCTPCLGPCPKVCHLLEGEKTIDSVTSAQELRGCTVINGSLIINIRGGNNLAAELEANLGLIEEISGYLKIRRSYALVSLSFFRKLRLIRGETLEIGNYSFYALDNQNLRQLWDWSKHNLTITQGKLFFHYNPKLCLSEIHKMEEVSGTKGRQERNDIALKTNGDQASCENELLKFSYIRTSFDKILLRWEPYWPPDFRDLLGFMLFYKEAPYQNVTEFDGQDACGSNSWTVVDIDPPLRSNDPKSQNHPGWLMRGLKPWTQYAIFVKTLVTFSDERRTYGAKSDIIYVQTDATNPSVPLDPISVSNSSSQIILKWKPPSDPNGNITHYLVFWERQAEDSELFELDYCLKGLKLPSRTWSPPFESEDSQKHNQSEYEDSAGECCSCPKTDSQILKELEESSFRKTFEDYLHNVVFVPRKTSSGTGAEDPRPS
Chain of Insulin receptor (P06213 763-1382 limits assumed): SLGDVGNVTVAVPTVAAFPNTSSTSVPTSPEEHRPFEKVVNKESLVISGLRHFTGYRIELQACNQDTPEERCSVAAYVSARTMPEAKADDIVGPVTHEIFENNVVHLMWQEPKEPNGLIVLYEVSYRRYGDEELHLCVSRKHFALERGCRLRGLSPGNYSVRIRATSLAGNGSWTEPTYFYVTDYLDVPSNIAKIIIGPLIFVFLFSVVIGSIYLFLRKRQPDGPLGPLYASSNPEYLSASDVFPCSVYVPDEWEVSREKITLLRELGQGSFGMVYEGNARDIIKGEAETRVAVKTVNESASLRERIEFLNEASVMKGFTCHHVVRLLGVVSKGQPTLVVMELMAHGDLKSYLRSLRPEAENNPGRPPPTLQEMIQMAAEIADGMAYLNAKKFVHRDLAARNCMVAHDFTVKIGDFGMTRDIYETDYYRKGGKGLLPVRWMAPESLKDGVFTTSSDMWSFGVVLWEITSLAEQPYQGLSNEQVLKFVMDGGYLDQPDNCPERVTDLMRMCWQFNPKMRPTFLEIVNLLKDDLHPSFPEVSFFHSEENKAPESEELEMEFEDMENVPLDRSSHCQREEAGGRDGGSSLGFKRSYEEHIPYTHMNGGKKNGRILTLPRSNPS
Assay [3] deals with T1, Serine/threonine-protein kinase 17A (Homo sapiens) (UniProt Q9UEE5).
T1 sequence (whole entry): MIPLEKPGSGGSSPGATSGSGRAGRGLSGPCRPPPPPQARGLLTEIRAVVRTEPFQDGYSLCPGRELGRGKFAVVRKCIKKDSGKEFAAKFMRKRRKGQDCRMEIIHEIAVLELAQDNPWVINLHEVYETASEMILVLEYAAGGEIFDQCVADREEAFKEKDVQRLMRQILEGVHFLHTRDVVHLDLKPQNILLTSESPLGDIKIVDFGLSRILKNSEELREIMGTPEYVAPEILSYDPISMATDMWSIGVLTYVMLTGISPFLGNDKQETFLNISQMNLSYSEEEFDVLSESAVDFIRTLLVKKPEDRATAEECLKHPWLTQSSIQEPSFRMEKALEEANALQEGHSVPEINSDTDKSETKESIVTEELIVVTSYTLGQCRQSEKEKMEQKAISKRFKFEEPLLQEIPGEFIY
Kind of assay: Selectivity interaction (KinomeScan (DiscoverX)) EUB0001049a STK17A. To be noted: at 1 µM.

Assay [4] addresses T2, cGMP-dependent protein kinase 1 (Homo sapiens) (UniProt Q13976).
T2 sequence (whole entry): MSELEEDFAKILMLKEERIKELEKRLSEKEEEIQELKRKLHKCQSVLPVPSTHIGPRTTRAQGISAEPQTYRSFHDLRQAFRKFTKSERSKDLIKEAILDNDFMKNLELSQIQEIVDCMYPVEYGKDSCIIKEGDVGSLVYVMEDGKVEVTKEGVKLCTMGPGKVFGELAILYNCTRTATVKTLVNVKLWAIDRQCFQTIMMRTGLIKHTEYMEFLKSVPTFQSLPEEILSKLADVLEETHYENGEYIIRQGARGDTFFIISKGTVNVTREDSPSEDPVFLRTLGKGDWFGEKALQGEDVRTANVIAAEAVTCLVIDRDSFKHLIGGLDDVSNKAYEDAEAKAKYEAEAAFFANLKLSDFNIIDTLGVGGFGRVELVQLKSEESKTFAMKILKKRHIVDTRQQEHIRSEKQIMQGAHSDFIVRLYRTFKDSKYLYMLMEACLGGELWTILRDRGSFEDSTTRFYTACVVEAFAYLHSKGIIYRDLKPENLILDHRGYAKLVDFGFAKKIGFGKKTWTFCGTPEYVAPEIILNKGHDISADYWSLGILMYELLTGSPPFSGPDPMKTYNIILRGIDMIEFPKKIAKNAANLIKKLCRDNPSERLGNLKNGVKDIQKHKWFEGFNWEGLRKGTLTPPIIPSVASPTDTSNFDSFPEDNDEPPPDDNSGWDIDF
The assay can be described thus: Selectivity interaction (KinomeScan (DiscoverX)) EUB0000607a PRKG1. To be noted: at 10 µM.

The subject of assay [5] is Tyrosine-protein kinase ABL1 (Homo sapiens), P00519 [H396P]. The assay can be described thus: (§2) Selectivity interaction (KinomeScan (DiscoverX)) EUB0000229b ABL1. To be noted: at 1 µM.
The subject of assay [6] is Tyrosine-protein kinase ABL1 (Homo sapiens), P00519 [Q252H]. The description is as §2. To be noted: at 1 µM.
Assay [7] has as its system Tyrosine-protein kinase ABL1 (Homo sapiens), P00519 [F317I]. The assay is described as §2. To be noted: at 1 µM.
In assay [8] the test system is Tyrosine-protein kinase ABL1 (Homo sapiens), P00519 [T315I]. Described as §2. To be noted: at 1 µM.
Assay [9] deals with Tyrosine-protein kinase ABL1 (Homo sapiens), P00519 [F317L]. The assay is described as §2. The settings on record: at 1 µM.
Assay [10] has as its system Tyrosine-protein kinase ABL1 (Homo sapiens), P00519 [E255K]. The assay is described as §2. The settings on record: at 1 µM.
For assay [11], the system named is Tyrosine-protein kinase ABL1 (Homo sapiens), P00519 [M351T]. The assay is described as §2. The settings on record: at 1 µM.
Assay [12] concerns Tyrosine-protein kinase ABL1 (Homo sapiens), P00519 [Y253F]. The description is as §2. The settings on record: at 1 µM.
Assay [13] concerns the target Mitogen-activated protein kinase kinase kinase 9 (Homo sapiens) (UniProt P80192). The assay can be described thus: Selectivity interaction (KinomeScan (DiscoverX)) EUB0001619a MAP3K9. The settings on record: at 1 µM.
The target of assay [14] is T3, Ephrin type-B receptor 6 (Homo sapiens) (UniProt O15197).
T3 sequence (whole entry): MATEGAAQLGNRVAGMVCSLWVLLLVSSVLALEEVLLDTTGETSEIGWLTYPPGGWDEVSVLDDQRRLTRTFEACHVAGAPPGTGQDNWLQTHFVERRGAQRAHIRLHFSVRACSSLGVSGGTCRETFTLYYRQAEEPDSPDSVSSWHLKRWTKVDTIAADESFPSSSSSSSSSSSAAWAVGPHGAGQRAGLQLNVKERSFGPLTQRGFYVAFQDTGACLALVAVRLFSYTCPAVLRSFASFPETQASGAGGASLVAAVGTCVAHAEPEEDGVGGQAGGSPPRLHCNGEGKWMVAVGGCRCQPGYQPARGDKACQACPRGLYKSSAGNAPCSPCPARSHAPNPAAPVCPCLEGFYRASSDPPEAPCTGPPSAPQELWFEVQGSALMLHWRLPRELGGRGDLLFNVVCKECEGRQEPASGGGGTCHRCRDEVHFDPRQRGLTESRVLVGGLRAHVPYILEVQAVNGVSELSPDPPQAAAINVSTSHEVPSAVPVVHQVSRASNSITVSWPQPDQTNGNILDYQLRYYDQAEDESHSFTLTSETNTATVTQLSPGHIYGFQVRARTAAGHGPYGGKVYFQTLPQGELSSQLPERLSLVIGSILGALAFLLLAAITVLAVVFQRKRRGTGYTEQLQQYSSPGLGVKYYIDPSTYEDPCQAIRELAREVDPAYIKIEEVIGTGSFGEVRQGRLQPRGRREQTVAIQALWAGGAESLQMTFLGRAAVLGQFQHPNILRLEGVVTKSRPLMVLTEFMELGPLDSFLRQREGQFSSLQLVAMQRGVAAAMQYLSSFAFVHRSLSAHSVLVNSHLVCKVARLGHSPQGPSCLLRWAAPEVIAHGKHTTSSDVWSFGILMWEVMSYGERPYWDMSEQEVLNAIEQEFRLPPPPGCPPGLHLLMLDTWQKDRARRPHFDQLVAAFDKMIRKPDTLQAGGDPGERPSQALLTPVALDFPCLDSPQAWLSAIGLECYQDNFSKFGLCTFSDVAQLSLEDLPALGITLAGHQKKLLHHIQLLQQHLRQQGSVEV
Kind of assay: Selectivity interaction (KinomeScan (DiscoverX)) EUB0000618a EPHB6. The settings on record: at 10 µM.

Chain of Serine/threonine-protein kinase B-raf (Homo sapiens) (P15056 whole entry): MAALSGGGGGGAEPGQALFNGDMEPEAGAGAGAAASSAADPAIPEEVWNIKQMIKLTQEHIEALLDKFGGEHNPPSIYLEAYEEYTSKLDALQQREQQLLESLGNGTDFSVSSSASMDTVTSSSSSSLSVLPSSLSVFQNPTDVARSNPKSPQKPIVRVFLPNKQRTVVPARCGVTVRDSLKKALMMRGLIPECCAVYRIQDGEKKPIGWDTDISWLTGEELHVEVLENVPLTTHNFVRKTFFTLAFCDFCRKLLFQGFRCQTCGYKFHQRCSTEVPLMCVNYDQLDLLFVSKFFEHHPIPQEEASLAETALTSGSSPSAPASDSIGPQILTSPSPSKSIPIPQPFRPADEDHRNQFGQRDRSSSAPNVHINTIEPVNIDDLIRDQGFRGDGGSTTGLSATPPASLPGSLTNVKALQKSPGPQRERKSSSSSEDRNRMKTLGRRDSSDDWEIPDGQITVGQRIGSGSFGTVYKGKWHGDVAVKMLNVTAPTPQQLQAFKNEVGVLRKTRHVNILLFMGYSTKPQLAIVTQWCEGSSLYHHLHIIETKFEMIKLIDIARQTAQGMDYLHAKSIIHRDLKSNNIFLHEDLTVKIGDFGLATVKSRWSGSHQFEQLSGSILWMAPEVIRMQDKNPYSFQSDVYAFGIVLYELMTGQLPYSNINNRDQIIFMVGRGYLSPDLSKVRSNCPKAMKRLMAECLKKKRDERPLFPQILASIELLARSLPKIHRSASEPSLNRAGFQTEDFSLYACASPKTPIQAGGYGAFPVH
Chain of Serine/threonine-protein kinase B-raf (Homo sapiens), P15056 [V600E] (P15056 whole entry V600E): as the sequence (P15056 whole entry) above, with V600E counted along it
Chain of Mitogen-activated protein kinase kinase kinase 9 (Homo sapiens) (P80192 whole entry, looked up): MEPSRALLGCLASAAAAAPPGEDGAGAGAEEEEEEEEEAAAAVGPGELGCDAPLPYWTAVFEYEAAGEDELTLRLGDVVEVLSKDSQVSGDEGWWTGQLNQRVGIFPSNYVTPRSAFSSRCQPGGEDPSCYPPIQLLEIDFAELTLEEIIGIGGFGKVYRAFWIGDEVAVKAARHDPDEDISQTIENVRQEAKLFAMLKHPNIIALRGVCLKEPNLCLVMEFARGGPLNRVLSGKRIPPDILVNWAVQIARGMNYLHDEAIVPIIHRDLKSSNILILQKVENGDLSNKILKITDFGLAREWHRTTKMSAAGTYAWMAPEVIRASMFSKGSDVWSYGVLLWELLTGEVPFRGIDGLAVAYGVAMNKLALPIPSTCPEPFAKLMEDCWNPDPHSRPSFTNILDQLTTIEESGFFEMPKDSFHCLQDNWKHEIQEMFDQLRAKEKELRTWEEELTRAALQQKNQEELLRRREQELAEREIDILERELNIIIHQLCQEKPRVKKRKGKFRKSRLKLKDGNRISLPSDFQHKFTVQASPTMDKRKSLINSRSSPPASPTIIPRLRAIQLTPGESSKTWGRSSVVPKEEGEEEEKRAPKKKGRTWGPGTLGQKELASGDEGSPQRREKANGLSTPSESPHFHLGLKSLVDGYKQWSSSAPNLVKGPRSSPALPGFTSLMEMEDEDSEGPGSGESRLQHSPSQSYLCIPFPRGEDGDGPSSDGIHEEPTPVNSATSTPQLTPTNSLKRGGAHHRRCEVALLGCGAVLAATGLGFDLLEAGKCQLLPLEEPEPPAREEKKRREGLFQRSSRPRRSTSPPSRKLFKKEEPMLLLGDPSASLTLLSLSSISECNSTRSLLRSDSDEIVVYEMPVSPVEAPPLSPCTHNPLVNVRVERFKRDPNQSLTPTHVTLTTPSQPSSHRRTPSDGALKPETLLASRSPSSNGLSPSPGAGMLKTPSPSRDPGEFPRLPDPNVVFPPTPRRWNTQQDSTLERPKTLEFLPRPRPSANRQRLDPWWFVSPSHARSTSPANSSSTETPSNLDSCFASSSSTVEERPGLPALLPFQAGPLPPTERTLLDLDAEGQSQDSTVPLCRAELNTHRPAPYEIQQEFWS

As to `C=CC(=O)Nc1cccc(C(=O)Nc2ccc(Nc3cc(-c4[nH]c(SC)nc4C)ccn3)cc2)c1`, the % of control in [1] (at 1 µM) was determined as 96%; in assay [1] (at 5 µM), 82%; in assay [2] (at 1 µM) it was 110%; in assay [2] (at 5 µM), 113%.
`CN(C)C/C=C/C(=O)Nc1ccc(C(=O)N2CCCC(Nc3ncc(Cl)c(-c4c[nH]c5ccccc45)n3)C2)cc1` (configuration not stated) returned a % of control at Insulin receptor of 100%.
`COc1cc(Nc2nc(C)cc(-c3cnn4nc(OC)ccc34)n2)cc(C(F)(F)F)c1`: the % of control in assay [3] was determined as 66%.
`CNC(=O)Nc1ccc(-c2nc(N3CC4CCC(C3)O4)c3cnn(C4CCC5(CC4)OCCO5)c3n2)cc1` yielded a % of control in assay [4] of 100%.
As for `COc1cc(N(C)c2ccnc3ccc(C(F)(F)F)cc23)cc(OC)c1OC`, the % binding in assay [5] was found to be 41%; in assay [6], 44%; in assay [7], 93%; in assay [8], 81%; in assay [9] it was 83%; in assay [10], 90%. Moreover, the values for the % binding in [11] and in [12] were 92% and 69%, respectively.
`N#Cc1cccc(-c2c[nH]c3ncnc(N4CCOCC4)c23)c1`: in assay [13], the % of control was determined as 72%.
Consider `O[C@H]1CC[C@H](Nc2ncc3nc(Nc4c(F)cc(F)cc4F)n([C@H]4CCOC4)c3n2)CC1`, for which the % of control in assay [14] is 7.8%.
